Entries after “also recorded” stand apart in the source; their conditions may differ. Where a name gives a salt, the structure may show the parent alone.
What was measured:
[1] = system: prototypical Nrf2 response genes (Akr1b8, Gclc, Hmox1, Nqo1, Txnrd1, Osgin1); assay: qRT-PCR of Nrf2 response genes in tissues after DMF PO or IV; format: in vivo, Sprague-Dawley rats; conditions: for Nrf2 genes significantly modulated, forebrain / Nrf2 genes significantly modulated, jejunum / Nrf2 genes significantly modulated, kidney / Nrf2 genes significantly modulated, cerebellum / Nrf2 genes significantly modulated, spleen: 2 and 6 hours, vs vehicle
Procedure: On Day 5 of the study 3 time points were evaluated: 10 minutes, 2 hours, and 6 hours after dosing, as illustrated in the timeline. At each time point, 5 animals from each group were sacrificed. At the 2 and 6 hour time points, the tissue samples from groups E, F, I, and J from each animal were split, with half of the tissue being processed for MMF exposure, and half processed for qRT-PCR. Note vehicle groups (C, D, G, and H) were not processed for MMF measurement and only used for qRT-PCR.
Two and 6 hours after dosing, cohorts of animals from Groups C, D, E and F and G, H, I and J, respectively, were sacrificed and tissues (forebrain, cerebellum, jejunum, kidney, and spleen) were collected for RNA analysis by qRT-PCR for expression of prototypical Nrf2 response genes.
For RNA preparation, frozen tissues were placed in 2 mL RNAse-free 96-well blocks with 1.5 mL QIAzol Lysis Reagent (QIAgen) and a 3.2 mm stainless steel bead (BioSpec Products, Bartlesville, Okla.). Tissues were disrupted for four cycles of 45 seconds in a Mini-Beadbeater (Biospec Products). RNA was extracted in chloroform and the aqueous phase was mixed with an equal volume of 70% ethanol. Extracted RNA was applied to RNeasy 96 plates and purified by the spin method according to the manufacturer's protocol (RNeasy 96 Universal Tissue Protocol, QIAgen, Hilden Germany).
Samples were reverse-transcribed into cDNA according to the manufacturer's protocols (Life Technologies, Carlsbad, Calif.) and analyzed by real-time polymerase chain reaction (qPCR). Rat target gene primers and 6-FAM™ dye-labeled TaqMan® MGB™ probes (Life Technologies) were used. Reactions containing 100 ng of cDNA, 900 nM of each primer, and 250 nM TaqMan probes were cycled on a QuantStudio 12 k-flex system (Life Technologies) once for 10 minutes at 95° C., followed by 40 cycles of 95° C. for 10 seconds and 60° C. for 1 minute. All samples were measured in triplicate with Gapdh as a normalizing gene. Taqman primer/probe sets from Life Technologies included: Akr1b8 (Rn00756513_m1); Gclc (Rn00689046_m1); Hmox1 (Rn01536933_m1); Nqo1 (Rn00566528_m1); Txnrd1 (Rn01503798_m1); Osgin1 (Rn00593303_m1) and Gapdh (Rn01775763_g1). Final analysis was performed using the comparative CT method to calculate fold changes and samples were normalized relative to vehicle controls at each time point. In all graphs, the mean fold-change (±standard deviation) is depicted.

[2] = system: malonate-induced striatal lesion in rats; assay: Malonate-induced striatal lesion volume (cytochrome oxidase histochemistry), oral DMF; format: in vivo, Sprague-Dawley rats
Procedure: Two separate experiments were conducted and are reported here.
Rats were anesthetized under Bupivacaine (2 mg/kg), Brevital (50 mg/kg, i.p.) and isoflurane anesthesia, placed in a stereotaxic frame and prepared for intrastriatal injection. A single injection of malonate was injected at a single site in the left striatum corresponding to stereotaxic coordinates at AP: […] from bregma; Lateral: 2.8 mm from midline; DV: −5.5 mm from surface of the skull at bregma. Malonate (in saline) was injected at a dose of 2.0 μmols in 2.0 μl over 4 minutes using a syringe pump. The injection needle was left in place for an additional 1.0 min following the infusion and was withdrawn slowly to minimize reflux of the infusate up the needle tract. Rats were kept warm on a heating pad until waking from anesthesia (Green and Greenamyre, 1995).
Three (Experiment 1) or four (Experiment 2) days after the malonate injection and 30 min after the last dose, all animals were sacrificed by CO2, and their brains were quickly removed and stored in 20% sucrose in PBS for at least 1 hour, then transfer them to 30% sucrose in PBS overnight. On next day, all brains were embedded in OCT and stored in −80° C. The first experiment included three treatment groups: vehicle, 30 mg/kg and 100 mg/kg, and the second experiment included four treatment groups: vehicle, 50 mg/kg, 75 mg/kg and 100 mg/kg.
Incubation medium consisted of 200 mg cytochrome C and 200 mg of 3, 3′-Diaminobenzidine tetrahydrochloride (DAB) in 500 ml of 0.1 M phosphate buffer, pH 7.4. Slides were incubated for 90 minutes at 37° C. and wash twice with PBS (2-5 min.), then removed to 4% neutral, buffered, paraformaldehyde for 20 minutes. Sections were rinsed twice with PBS (2-5 min.), then twice with distilled water (2-5 min.), dehydrated, cleared in xylene, and coverslipped.
The lesion area on each section was quantified using Open-Lab Image Analysis System. Sections were taken throughout the entire striatum and a total of twenty 25 μm sections were analyzed for each rat. Area measurements were summed and multiplied by intersectional distance (200 μm) to determine the lesion volume for each subject.
Data for lesion volume was analyzed by one way analysis of variance (ANOVA) followed by a Tukey's test to assess differences between the treatment and vehicle groups.

SMILES: COC(=O)/C=C/C(=O)OC [DMF, dimethyl fumarate]
- Nrf2 genes significantly modulated, forebrain ([1]; DMF IV 30 mg/kg): significant modulation of Nqo1, Osgin1, Akr1b8, and Hmox1 at both 2 and 6 hours
- Nrf2 genes significantly modulated, jejunum ([1]; DMF IV 30 mg/kg): significant increases were observed for Nqo1 and Hmox1 at 6 hours, and in Osgin1 expression at 2 hours
- Nrf2 genes significantly modulated, kidney ([1]; DMF IV 30 mg/kg): significant modulation of Nqo1 and Txnrd1 at 2 and 6 hours, and Hmox1 only at 2 hours
- Nrf2 genes significantly modulated, cerebellum ([1]; DMF IV 30 mg/kg, 30 mg/kg): significant modulation was observed for Nqo1, Osgin1, Akr1b8, and Hmox1 at both 2 and 6 hours; also recorded: significant increase in the transcriptional responses of Gclc and Txnrd1 in the cerebellum, but only at the later 6-hour time point
- Nrf2 genes significantly modulated, spleen ([1]; DMF IV 30 mg/kg, 30 mg/kg): significant transcriptional increases were noted for Osgin1 at both 2 and 6 hour time points; also recorded: significant changes in Akr1b8 and Txnrd1 were observed only at the 2 hour time point; also recorded: A significant change in Nqo1 was also found 6 hours after DMF IV dosing
- Hmox1 expression in spleen ([1]; DMF PO 100 mg/kg or IV 30 mg/kg): No changes were observed
- Nrf2 genes significantly modulated, cerebellum ([1]; DMF PO 100 mg/kg): significant modulation of 3 genes in cerebellar tissue: Osgin1 at 2 and 6 hours, Akr1b8 at 2 hours, and Hmox1 at the 6 hour time point
- Nrf2 genes significantly modulated, forebrain ([1]; DMF PO 100 mg/kg): modulation of only two genes: Osgin1 at 2 and 6 hours and Akr1b8 only at 2 hours
- Nrf2 genes significantly modulated, spleen ([1]; DMF PO 100 mg/kg): significant increases in Nqo1, Osgin1, Akr1b8, Gclc, and Txnrd1 at both 2 and 6 hours
- Nrf2 genes significantly modulated, jejunum ([1]; DMF PO 100 mg/kg, 100 mg/kg): significant increases in Osgin1, Akr1b8, and Txnrd1 at both 2 and 6 hours; also recorded: Nqo1 expression was increased after PO DMF dosing only at the 6-hour time point; also recorded: significant increases in Gclc and Hmox1 were observed at the 2-hour time point
- Nrf2 genes significantly modulated, kidney ([1]; DMF PO 100 mg/kg, 100 mg/kg): significant changes at both 2 and 6 hour time points for Nqo1, Hmox1, and Txnrd1; also recorded: Osgin1 was significantly modulated only at the 2 hour time point
- Relationship of MMF exposure (10 minutes) and pharmacodynamic response (2 or 6 hours) ([1]; forebrain, kidney and spleen, PO 100 mg/kg and IV 30 mg/kg): clear positive correlation in MMF exposure and pharmacodynamic response
- Reduction of malonate induced lesion volume ([2]; Experiment 1, DMF 100 mg/kg oral daily, n=7 per group): 55%
- Reduction of malonate-induced lesion volume ([2]; Experiment 2, DMF 75 mg/kg oral daily): 44%
- Reduction of malonate-induced lesion volume ([2]; Experiment 2, DMF 100 mg/kg oral daily): 61%
- Reduction of malonate-induced lesion volume ([2]; both experiments, DMF 100 mg/kg oral daily): at least 55%

Source: patent US20180289655A1, “Methods and Compositions for the Intravenous Administration of Fumarates for the Treatment of Neurological Diseases” (Biogen MA Inc., priority 2015, published 2018)
